System: Saccharomyces cerevisiae ABC16-Green Monster
Assay: growth inhibition at single dose (up to 150 µM), below the 70% cut-off for dose-response; higher = more potent
Conditions: 18 h; 30 °C; YPD
How it was run: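 Drug-sensitive S. cerevisiae ABC16-Green Monster cells were grown overnight in YPD at 30 °C and diluted to log phase (OD600 0.1–0.2). Each library compound was added at one dose of 150 µM to 200 µl culture per well in 96-well plates, in biological duplicates, with untreated cultures alongside. OD600 was read at 0 h and after 18 h at 30 °C. The value is percent growth inhibition; compounds below 70% in both replicates were not taken to dose-response.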

Structure (SMILES): O=C(CCc1ccccc1)c1ccccc1OCC(O)CN1CCCCC1 (stereo not given)
- growth inhibition at single dose: < 70%

Structure (SMILES): N#Cc1ccc(NCCNc2nc3ccccc3s2)nc1
- growth inhibition at single dose: < 70%

Structure (SMILES): O=C(NC(c1ccccc1)c1ccc2cccnc2c1O)c1ccccc1 (stereo not given)
- growth inhibition at single dose: < 70%

Structure (SMILES): CCc1cccc2c(C(=O)COC(=O)C34CC5CC(CC(O)(C5)C3)C4)c[nH]c12
- growth inhibition at single dose: < 70%

Structure (SMILES): CCOc1ccccc1CNC(=O)C1c2ccccc2C(=O)N(CC(C)C)C1c1cccs1 (stereo not given)
- growth inhibition at single dose: < 70%

Structure (SMILES): Cc1ccc(Cn2ccs/c2=N/C(=O)c2cc3c(s2)CCCCC3)cc1
- growth inhibition at single dose: < 70%

Structure (SMILES): N#CCNC(=O)c1ccc(-c2ccnc(Nc3ccc(N4CCOCC4)cc3)n2)cc1 [Momelotinib]
- growth inhibition at single dose: < 70%

Structure (SMILES): COc1cccc(Cn2c(Oc3ccccc3)nc3c2c(=O)n(C)c(=O)n3C)c1
- growth inhibition at single dose: < 70%

Structure (SMILES): O=C(c1c[nH]c2ccccc12)C(c1ccccc1)N1CCN(CC(=O)N2CCCC2)CC1 (stereo not given)
- growth inhibition at single dose: < 70%

Structure (SMILES): Cc1cc2nc(NC(=O)C(C)(C)C)nc(Cl)c2n1Cc1ccc(Cl)cc1
- growth inhibition at single dose: < 70%

Structure (SMILES): c1ccc(-c2[nH]c3ccccc3c2C(c2ccccn2)N2CCCC2)cc1 (stereo not given)
- growth inhibition at single dose: < 70%

Structure (SMILES): Clc1ccc2nc(CSc3nnc4c(n3)[nH]c3ccccc34)cn2c1
- growth inhibition at single dose: < 70%

Structure (SMILES): CC(C)NS(=O)(=O)c1cccc(CNc2ncnc3ccccc23)c1
- growth inhibition at single dose: < 70%

Structure (SMILES): COc1cc2c3cc1Oc1c(OC)c(OC)cc4c1C(Cc1ccc(O)c(c1)Oc1ccc(cc1)CC3N(C)CC2)N(C)CC4 (stereo not given)
- growth inhibition at single dose: < 70%

Structure (SMILES): C=c1ccccc1=C1NN=C(Nc2ccc(F)c(F)c2F)O1
- growth inhibition at single dose: < 70%

Structure (SMILES): Cc1cccnc1NC(=O)c1cccc(OCc2c(C)noc2C)c1
- growth inhibition at single dose: < 70%

Structure (SMILES): Cc1ccc(N2C3c4ccccc4N(S(=O)(=O)c4ccc(C)cc4)C2c2ccccc2N3S(=O)(=O)c2ccc(C)cc2)cc1
- growth inhibition at single dose: < 70%

Structure (SMILES): CCn1nnnc1Sc1nc(C)nc2sc3c(c12)CCC3
- growth inhibition at single dose: < 70%

Structure (SMILES): CCOc1c(Cl)cc(CNCC(O)c2ccccc2)cc1OC (stereo not given)
- growth inhibition at single dose: < 70%

Structure (SMILES): O=C(NCCCN1CCC(N2CCCCC2)CC1)C1=Cc2cc(Br)ccc2OC1
- growth inhibition at single dose: < 70%

Structure (SMILES): COc1ccc(C(=O)NC(c2ccccc2Cl)c2cc(Cl)c3cccnc3c2O)cc1 (stereo not given)
- growth inhibition at single dose: < 70%

Structure (SMILES): O=C(Nc1nc2c(s1)CCC2)c1cnn(-c2ccccc2)c1C1CC1
- growth inhibition at single dose: < 70%

Structure (SMILES): CCCCC(O)(c1ccc(Cl)cc1)C(CN1CCOCC1)c1ccc(Cl)cc1 (stereo not given)
- growth inhibition at single dose: < 70%

Structure (SMILES): COC(=O)c1cc(OC)c(OC)cc1NS(=O)(=O)c1ccc(Cl)cc1
- growth inhibition at single dose: < 70%

Structure (SMILES): O=C(Nc1ccc(N2CCCC2)cn1)c1cccc(F)c1
- growth inhibition at single dose: < 70%

Structure (SMILES): COC(=O)c1cc(OC)c(OC)cc1NS(=O)(=O)c1ccc(OC)cc1
- growth inhibition at single dose: < 70%

Structure (SMILES): Clc1cccc(CO[C@H]2CCc3ccccc3[C@@H]2n2ccnn2)c1
- growth inhibition at single dose: < 70%

Structure (SMILES): c1ccc(NCCNc2nc(-c3ccncc3)nc3ccccc23)nc1
- growth inhibition at single dose: < 70%

Structure (SMILES): CO/N=C(\C(=O)OC)c1ccccc1CO/N=C(\C)c1cccc(C(F)(F)F)c1
- growth inhibition at single dose: < 70%

Structure (SMILES): COc1ccc2c(c1)C1(Nc3ccccc3-c3nc4ccccc4n31)C(=O)N2 (stereo not given)
- growth inhibition at single dose: < 70%

Structure (SMILES): CCc1ccc(C(=O)Nc2cccc(NC(=O)c3ccccc3C)c2)cc1
- growth inhibition at single dose: < 70%

Structure (SMILES): CCCn1nnc(NC(=O)COc2ccc(C3CCCCC3)cc2)n1
- growth inhibition at single dose: < 70%

Structure (SMILES): COc1ccc2cc(CNc3ncnc4n[nH]cc34)ccc2c1
- growth inhibition at single dose: < 70%

Structure (SMILES): COc1cccc(Nc2nc(-c3ccc(CCC(C)NC(C)=O)cc3)cs2)c1 (stereo not given)
- growth inhibition at single dose: < 70%

Structure (SMILES): COc1ccc(-c2nonc2NC(=O)c2cccc(Cl)c2)cc1OC
- growth inhibition at single dose: < 70%

Structure (SMILES): COc1ccc(C2(C(=O)Nc3ccc(Br)cc3)CCCC2)cc1
- growth inhibition at single dose: < 70%

Structure (SMILES): CSc1nc(=O)nc(-c2ccc(Cl)cc2)[nH]1
- growth inhibition at single dose: < 70%

Structure (SMILES): Nc1ncnc2c1c(-c1cnc3ccccc3c1)nn2CC1CCNCC1
- growth inhibition at single dose: < 70%

Structure (SMILES): CSC1=NC(=Nc2c(C)cccc2C)C2(CCC(C(C)(C)C)CC2)N1c1ccc(Cl)cc1 (stereo not given)
- growth inhibition at single dose: < 70%

Structure (SMILES): Cc1ccc(NC(=O)CC2COc3ccccc3O2)cc1Cl (stereo not given)
- growth inhibition at single dose: < 70%

Structure (SMILES): COc1ccc(CNc2ncnc3ccccc23)cc1
- growth inhibition at single dose: < 70%

Structure (SMILES): CCCc1cc(O)c2c3c(c(=O)oc2c1)CN(C)CC3
- growth inhibition at single dose: < 70%

Structure (SMILES): COc1ccc(CN2CCN(C(=O)c3ccc(-n4cccn4)cc3)CC2)cc1F
- growth inhibition at single dose: < 70%

Structure (SMILES): CC(C)(C)c1cc(NC(=O)COc2ccc3[nH]c4ccccc4c(=O)c3c2)n(-c2ccccc2)n1
- growth inhibition at single dose: < 70%

Structure (SMILES): CNc1snc(C)c1C(=O)NCCOc1ccc(OC)cc1
- growth inhibition at single dose: < 70%

Structure (SMILES): NC(=O)c1cc(NC(=O)c2cccs2)ccc1N1CCCCC1
- growth inhibition at single dose: < 70%

Structure (SMILES): Cc1ccc(-c2cc3c(nn2)-c2ccccc2C3=O)cc1
- growth inhibition at single dose: < 70%

Structure (SMILES): CC(Oc1ccc2ccc(=O)oc2c1)C(=O)N1CCc2ccccc21 (stereo not given)
- growth inhibition at single dose: < 70%

Structure (SMILES): O=c1c2ccccc2cnn1-c1nc2ccccc2s1
- growth inhibition at single dose: < 70%

Structure (SMILES): C=CCn1c(C)cc(C(=O)COC(=O)C(O)(c2ccccc2)c2ccccc2)c1C
- growth inhibition at single dose: < 70%

Structure (SMILES): Cc1nc(Sc2ncnc3sc4c(c23)CCC4)sc1CC(N)=O
- growth inhibition at single dose: < 70%

Structure (SMILES): CCOC(=O)N1CCC(N/C=C(\C#N)S(=O)(=O)c2ccc(Cl)cc2)CC1
- growth inhibition at single dose: < 70%

Structure (SMILES): Cc1ccc(-c2cc(C(=O)Nc3ccc(S(=O)(=O)N4CCCCC4)cc3)[nH]n2)c(O)c1
- growth inhibition at single dose: < 70%

Structure (SMILES): CCN(Cc1ccccc1)C1CCN(Cc2cc(Br)ccc2O)CC1
- growth inhibition at single dose: < 70%

Structure (SMILES): CC(C)(C)c1cc(C(=O)N2CCN(c3nccnc3C#N)CC2)n(Cc2ccccc2)n1
- growth inhibition at single dose: < 70%

Structure (SMILES): Cc1cc(C2=NNC(=NC3CC3)SC2)c(C)n1-c1ccccn1
- growth inhibition at single dose: < 70%

Structure (SMILES): CCc1sc(C(=O)Nc2cnc3ccccc3c2)cc1C
- growth inhibition at single dose: < 70%

Structure (SMILES): Cc1ccc(/C=C/C(=O)NC2=NCCS2)c(Br)c1
- growth inhibition at single dose: < 70%

Structure (SMILES): C[C@@H]1[C@H](O)[C@@H](C)/C=C/C=C/C=C/C=C/C=C/C=C/C=C/[C@H](O[C@@H]2O[C@H](C)[C@@H](O)[C@H](N)[C@@H]2O)C[C@@H]2O[C@](O)(C[C@@H](O)C[C@@H](O)[C@H](O)CC[C@@H](O)C[C@@H](O)CC(=O)O[C@H]1C)C[C@H](O)[C@H]2C(=O)O
- growth inhibition at single dose: < 70%

Structure (SMILES): COc1ccc(-c2csc3ncnc(Sc4nnc(-c5cccc(C)c5)n4CC(N)=O)c23)cc1
- growth inhibition at single dose: < 70%

Structure (SMILES): CC1CCc2[nH]c3ccc(C(=O)Nc4ccccc4N4CCCCC4)cc3c2C1 (stereo not given)
- growth inhibition at single dose: < 70%

Structure (SMILES): O=C(OCc1ccccc1)N1CCC(c2cc(-c3ccncc3)c(-c3ccc(F)cc3)[nH]2)CC1
- growth inhibition at single dose: < 70%

Structure (SMILES): CCOC(=O)c1sc(N)c(C#N)c1COC(=O)c1c(CC)noc1C
- growth inhibition at single dose: < 70%

Structure (SMILES): CC(Nc1ccc(Oc2cccc(F)c2)cc1)C(=O)N1CCNC1=O (stereo not given)
- growth inhibition at single dose: < 70%

Structure (SMILES): FC(F)(F)c1nc(N2CCN(c3ccncc3)CC2)c2ccccc2n1
- growth inhibition at single dose: < 70%

Structure (SMILES): CNc1cc(C)nc(C2CN(C(=O)c3n[nH]c4ccccc34)CCO2)c1 (stereo not given)
- growth inhibition at single dose: < 70%

Structure (SMILES): CCC(C)c1ccc(S(=O)(=O)N(Cc2ccc(C(=O)NC3CC3)cc2)C2CC2)cc1 (stereo not given)
- growth inhibition at single dose: < 70%

Structure (SMILES): CS(=O)(=O)N1CCC(Cn2nc(Cc3cccc4ccccc34)c3c(N)ncnc32)CC1
- growth inhibition at single dose: < 70%

Structure (SMILES): Cc1ccc(C(=O)c2oc3ccc4c(C)cc(=O)oc4c3c2C)cc1
- growth inhibition at single dose: < 70%

Structure (SMILES): CCOc1ccc(-n2cc(-c3ccccc3)c3c(SCc4cc(C)ccc4C)ncnc32)cc1
- growth inhibition at single dose: < 70%

Structure (SMILES): CCN(CC(=O)Nc1ccccc1-c1ccccc1)Cc1nc(=O)c2ccccc2[nH]1
- growth inhibition at single dose: < 70%

Structure (SMILES): CN1CCN(c2ccc(Nc3c4ccccc4nc4ccccc34)cc2)CC1
- growth inhibition at single dose: < 70%

Structure (SMILES): Cc1ccc(NS(=O)(=O)c2ccc(C(=O)Nc3ncccc3O)cc2)cc1
- growth inhibition at single dose: < 70%

Structure (SMILES): Oc1ccc2ccccc2c1CNc1nc2ccccc2[nH]1
- growth inhibition at single dose: < 70%

Structure (SMILES): O=C(CN1CCN(C(=O)/C=C/c2sc3ccccc3c2Cl)CC1)NC1CC1
- growth inhibition at single dose: < 70%

Structure (SMILES): O=C(Nc1ccc(N2CCOCC2)cn1)c1ccccc1
- growth inhibition at single dose: < 70%

Structure (SMILES): COc1ccc2c(c1OC)C(=O)N1c3ccccc3N=C(c3ccc(C)cc3)CC21 (stereo not given)
- growth inhibition at single dose: < 70%

Structure (SMILES): O=C1O[C@@H](CO)CN1c1cc(F)c(C2=CCN(Cc3ccccc3)CC2)c(F)c1
- growth inhibition at single dose: < 70%

Structure (SMILES): Cc1nc(NCCNc2cnccn2)c2c(-c3cccs3)csc2n1
- growth inhibition at single dose: < 70%

Structure (SMILES): FC(F)(F)c1cccc(CNC2CCN(CCc3ccccc3)CC2)c1
- growth inhibition at single dose: < 70%

Structure (SMILES): CC(=O)NCCc1nc2ccccc2n1Cc1ccc(C(C)C)cc1
- growth inhibition at single dose: < 70%

Structure (SMILES): CN(C)S(=O)(=O)c1cccc(C(=O)Nc2cnc3ccccc3c2)c1
- growth inhibition at single dose: < 70%

Structure (SMILES): Cc1cc(C)cc(Nc2cc(C)nc3nc(C(F)(F)F)nn23)c1
- growth inhibition at single dose: < 70%

Structure (SMILES): Cc1[nH]c2ccc(F)cc2c(=O)c1I
- growth inhibition at single dose: < 70%

Structure (SMILES): CC(C)NC(=O)N1CCCC(C(=O)Nc2nc3ccccc3[nH]2)C1 (stereo not given)
- growth inhibition at single dose: < 70%

Structure (SMILES): OC1CCC(Nc2nn3cc(-c4ccccc4)nc3s2)CC1 (stereo not given)
- growth inhibition at single dose: < 70%

Structure (SMILES): Cc1cc(Nc2ccncc2)n2nc(C)c(-c3ccccc3Cl)c2n1
- growth inhibition at single dose: < 70%

Structure (SMILES): CCc1nc2ccc(C(=O)NCc3ccc4c(c3)OCO4)cn2c1N(C)Cc1cccs1
- growth inhibition at single dose: < 70%

Structure (SMILES): NCC(=O)N1CCn2c(nc(-c3ccccc3)c2Nc2ccc3c(c2)OCO3)C1
- growth inhibition at single dose: < 70%

Structure (SMILES): Cc1sc2ncnc(Sc3nc4ccccc4[nH]3)c2c1C
- growth inhibition at single dose: < 70%

Source: the supplement of paper PMC8837787
